Test results: patent publication US12071602B2, “Inductively coupled capacitor wireless sensor system for rapid antimicrobial susceptibility testing” (SYRACUSE UNIVERSITY, priority 2021, dated 2024)

Test system: E. coli MG1655
Assay: LC sensor relative permittivity growth monitoring (AST), ampicillin sensitive strain
Format: cell-based
Conditions: 100 μg/mL ampicillin at the time of inoculation, cultured for 4 hours; observed within 30 mins; FIG. 12

With `CC1(C)S[C@@H]2[C@H](NC(=O)[C@H](N)c3ccccc3)C(=O)N2[C@H]1C(=O)O` [ampicillin] the “growth in presence of ampicillin (relative permittivity)” value was “inhibited”.
